Read-outs that look alike come from different tables or passages of the source.
Key:
[1] = biological target: hDGKalpha(1-735)-N-His (Homo sapiens (Human), UniProt P23743); experiment: DGKalpha ADP Glo assay (in vitro DGK inhibition); assay type: biochemical; settings: DLG 125 uM, ATP 25 μM, DGK α 4 nM, 1 hour reaction
Protocol: (§1) DGK α and ζ kinase use ATP to phosphorylate the substrate 1,2-dilauroyl-sn-glycerol (DLG, incorporated in the liposomes). ATP is converted to ADP as a result of this enzymatic reaction. After the kinase reaction, an ATP-depletion reagent is added to terminate the kinase reaction and deplete any remaining ATP, leaving only ADP. Second, a detection reagent is added to simultaneously convert ADP to ATP and allow the newly synthesized ATP to be converted to light using a coupled luciferase/luciferin reaction.
(§2) Purification of both enzymes was performed as previously described by Takahashi et al., PeerJ, 2018 (Takahashi, D.; Sakane, F. Expression and purification of human diacylglycerol kinase alpha from baculovirus-infected insect cells for structural studies. PeerJ 2018, 6, No. e5449).
(§3) A concentrated liposome solution was prepared in assay buffer without DTT and BSA: 2 mM of DLG in 21 mM of total liposome (2 mM DLG/8 mM PS/11 mM PC). […] The reactions were started by addition of DGK α and ζ kinases at 4 nM and 2 nM final concentrations, respectively. After 1 hour reaction, the amount of ADP formed was detected with the ADP-Glo kinase assay (Promega) according to the manufacturer instructions. Compounds were added in 11-points dose response, starting at […], 1:3 dilutions, with a final DMSO concentration of 2%. The multidrop combi was used as a liquid handler and luminescence was read with 0.5 s by the envision reader (PE).

[2] = biological target: hDGKzeta(1-928)-N-His (Homo sapiens (Human), UniProt Q13574); experiment: DGKzeta ADP Glo assay (in vitro DGK inhibition); assay type: biochemical; settings: DLG 125 uM, ATP 50 μM, DGK ζ 2 nM, 1 hour reaction
Protocol: as §1, §2, §3

[3] = test system: primary human T-cells
[4] = test system: primary human T-cells; experiment: Proliferation assay after 5 days (CellTiter-Glo, CD3 stimulation; PBS counter screen); assay type: cell-based; settings: Homo sapiens, T-cell, 120 h, CD3 stimulation; for Emax: 5 days, normalized to reference compound A1 as stimulator control = 100%, DMSO neutral control, read-out: Emax proliferation (% activation); for EC50: primary human T-cells, CellTiter-Glo after 5 days, EC50 of fitted sigmoidal curve, read-out: Tcell Proliferation CD3 EC50
Procedure, shortened: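 Compounds were added to medium-only plates, and proliferation was read 5 days later as luminescence from CellTiter-Glo 2.0, whose ATP signal is proportional to cell number. Plates and reagent were equilibrated to room temperature for 45 min before an equal volume of reagent was added, with 15 min rocking.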

Sequence of hDGKalpha(1-735)-N-His (P23743 whole entry): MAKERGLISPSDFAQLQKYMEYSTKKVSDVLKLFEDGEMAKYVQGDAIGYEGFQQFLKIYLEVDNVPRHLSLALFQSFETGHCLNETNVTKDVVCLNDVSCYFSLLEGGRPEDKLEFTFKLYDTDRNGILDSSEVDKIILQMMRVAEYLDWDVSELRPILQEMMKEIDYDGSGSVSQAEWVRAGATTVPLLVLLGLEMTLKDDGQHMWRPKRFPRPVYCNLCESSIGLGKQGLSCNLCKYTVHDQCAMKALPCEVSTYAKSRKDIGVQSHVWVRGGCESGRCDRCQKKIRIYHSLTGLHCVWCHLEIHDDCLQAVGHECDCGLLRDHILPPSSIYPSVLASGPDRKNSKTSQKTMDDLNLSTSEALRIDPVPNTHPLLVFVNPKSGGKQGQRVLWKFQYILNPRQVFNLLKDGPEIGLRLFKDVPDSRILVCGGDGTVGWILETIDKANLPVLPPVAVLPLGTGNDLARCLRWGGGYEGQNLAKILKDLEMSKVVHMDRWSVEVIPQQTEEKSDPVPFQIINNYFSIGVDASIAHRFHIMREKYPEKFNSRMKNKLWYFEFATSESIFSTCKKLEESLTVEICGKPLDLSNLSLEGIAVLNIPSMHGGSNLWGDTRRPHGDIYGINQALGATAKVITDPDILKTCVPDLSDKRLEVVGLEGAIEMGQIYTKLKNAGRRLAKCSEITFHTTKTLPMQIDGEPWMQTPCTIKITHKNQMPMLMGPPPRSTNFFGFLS
Sequence of hDGKzeta(1-928)-N-His (Q13574 whole entry): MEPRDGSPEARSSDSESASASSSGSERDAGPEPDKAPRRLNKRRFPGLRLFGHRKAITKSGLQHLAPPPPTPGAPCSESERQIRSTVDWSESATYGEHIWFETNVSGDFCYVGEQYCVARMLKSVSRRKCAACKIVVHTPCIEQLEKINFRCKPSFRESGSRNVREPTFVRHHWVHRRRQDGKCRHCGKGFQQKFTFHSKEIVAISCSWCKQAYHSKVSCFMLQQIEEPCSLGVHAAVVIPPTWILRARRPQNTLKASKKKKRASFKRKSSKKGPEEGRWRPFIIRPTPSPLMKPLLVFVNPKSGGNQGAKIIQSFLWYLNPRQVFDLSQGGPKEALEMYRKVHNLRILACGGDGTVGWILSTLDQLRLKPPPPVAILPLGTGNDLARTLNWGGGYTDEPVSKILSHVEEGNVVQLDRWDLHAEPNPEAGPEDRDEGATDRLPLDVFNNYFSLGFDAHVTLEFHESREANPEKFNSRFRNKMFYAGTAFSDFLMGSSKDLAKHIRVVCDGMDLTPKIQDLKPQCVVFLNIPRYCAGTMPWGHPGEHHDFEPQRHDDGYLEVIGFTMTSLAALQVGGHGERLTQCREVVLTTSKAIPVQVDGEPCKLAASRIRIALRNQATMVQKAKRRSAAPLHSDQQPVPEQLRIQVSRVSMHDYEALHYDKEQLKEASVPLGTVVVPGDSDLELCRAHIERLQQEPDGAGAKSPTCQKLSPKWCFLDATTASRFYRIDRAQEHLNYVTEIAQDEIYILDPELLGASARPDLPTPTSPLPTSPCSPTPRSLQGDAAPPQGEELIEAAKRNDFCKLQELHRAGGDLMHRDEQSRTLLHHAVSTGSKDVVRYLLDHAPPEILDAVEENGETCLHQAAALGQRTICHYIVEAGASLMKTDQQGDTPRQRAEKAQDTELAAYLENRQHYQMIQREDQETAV

Structure (SMILES)	IC50 [1] [nM]	IC50 [2] [nM]	EC50 [3] [nM]	Emax [4] [%]	EC50 [4] [nM]
CC(C)(C)c1nnc(-c2cc3c(cc2F)S(=O)(=O)C[C@H](N)C(=O)N3Cc2ccc(C(C)(C)C#N)cc2)o1 [Example 244, 2-methyl-2-[4-[[(3R)-3-amino-7-(5-tert-butyl-1,3,4-oxadiazol-2-yl)-8-fluoro-1,1,4-trioxo-2,3-dihydro-1λ^6,5-benzothiazepin-5-yl]methyl]phenyl]propanenitrile]	836	1100	236	102	137
CC(C)(C)c1nnc(-c2cc3c(cc2F)S(=O)(=O)C[C@H](N)C(=O)N3Cc2ccc(OC3CCCC3)cc2)o1 [Example 253, (3R)-3-amino-7-(5-tert-butyl-1,3,4-oxadiazol-2-yl)-5-[[4-(cyclopentoxy)phenyl]methyl]-8-fluoro-1,1-dioxo-2,3-dihydro-1λ^6,5-benzothiazepin-4-one]	198	105	< 15.1	116	40.3
N[C@H]1CS(=O)(=O)c2cc(F)c(-c3noc(C(N)(c4ccc(F)cc4)C(F)(F)F)n3)cc2N(Cc2ccc(Cl)cc2)C1=O (stereo partly drawn) [Example 300, (3R)-3-amino-7-[5-[1-amino-2,2,2-trifluoro-1-(4-fluorophenyl)ethyl]-1,2,4-oxadiazol-3-yl]-5-[(4-chlorophenyl)methyl]-8-fluoro-1,1-dioxo-2,3-dihydro-1λ^6,5-benzothiazepin-4-one]	3940	481	243	193	127
Cc1ccc(S(C)(=O)=O)cc1-c1nc(-c2cc3c(cc2F)S(=O)(=O)C[C@H](N)C(=O)N3Cc2ccc(Cl)cc2)no1 [Example 311, (3R)-3-amino-5-[(4-chlorophenyl)methyl]-8-fluoro-7-[5-(2-methyl-5-methylsulfonyl-phenyl)-1,2,4-oxadiazol-3-yl]-1,1-dioxo-2,3-dihydro-1λ^6,5-benzothiazepin-4-one]	43700	69	5040	67	1090
Cc1cc(S(C)(=O)=O)ccc1-c1nc(-c2cc3c(cc2F)S(=O)(=O)C[C@H](N)C(=O)N3Cc2ccc(Cl)cc2)no1 [Example 314, (3R)-3-amino-5-[(4-chlorophenyl)methyl]-8-fluoro-7-[5-(2-methyl-4-methylsulfonyl-phenyl)-1,2,4-oxadiazol-3-yl]-1,1-dioxo-2,3-dihydro-1λ^6,5-benzothiazepin-4-one]	6150	150	234	78	155
COC(=O)N1CCC(c2nc(-c3cc4c(cc3F)S(=O)(=O)C[C@H](N)C(=O)N4Cc3ccc(OC4CCCC4)cc3)no2)C1 (stereo partly drawn) [Example 348, methyl 3-[3-[(3R)-3-amino-5-[[4-(cyclopentoxy)phenyl]methyl]-8-fluoro-1,1,4-trioxo-2,3-dihydro-1λ^6,5-benzothiazepin-7-yl]-1,2,4-oxadiazol-5-yl]pyrrolidine-1-carboxylate]	2660	374	1710	141	662
CC(C)(C)c1nc(-c2cc3c(cc2F)S(=O)(=O)C[C@H](N)C(=O)N3Cc2ccc(OC3CCCC3)cc2)no1 [Example 350, (3R)-3-amino-7-(5-tert-butyl-1,2,4-oxadiazol-3-yl)-5-[[4-(cyclopentoxy)phenyl]methyl]-8-fluoro-1,1-dioxo-2,3-dihydro-1λ^6,5-benzothiazepin-4-one]	1610	235	312	256	208

Second part, led by results:

IC50 [1] [nM]	IC50 [2] [nM]	EC50 [3] [nM]	Structure (SMILES)	Emax [4] [%]	EC50 [4] [nM]
513	672	1110	CC(C)(CO)n1nnc(-c2cc3c(cc2F)S(=O)(=O)C[C@H](N)C(=O)N3Cc2ccc(Cl)cc2)n1 [Example 28, (3R)-3-amino-5-[(4-chlorophenyl)methyl]-8-fluoro-7-[2-(2-hydroxy-1,1-dimethyl-ethyl)tetrazol-5-yl]-1,1-dioxo-2,3-dihydro-1λ^6,5-benzothiazepin-4-one]	129	1260
403	114	2330	CC(C)Oc1ccc(CN2C(=O)[C@@H](N)CS(=O)(=O)c3cc(F)c(-c4noc(C(N)C(F)(F)F)n4)cc32)cc1 (stereo partly drawn) [Example 48, (3R)-3-amino-7-[5-(1-amino-2,2,2-trifluoro-ethyl)-1,2,4-oxadiazol-3-yl]-8-fluoro-5-[(4-isopropoxyphenyl)methyl]-1,1-dioxo-2,3-dihydro-1λ^6,5-benzothiazepin-4-one]	248	3190
299	147	1050	CC1(C)CN(c2nc(-c3cc4c(cc3F)S(=O)(=O)C[C@H](N)C(=O)N4Cc3ccc(Cl)cc3)no2)CCO1 [Example 205, (3R)-3-amino-5-[(4-chlorophenyl)methyl]-7-[5-(2,2-dimethylmorpholin-4-yl)-1,2,4-oxadiazol-3-yl]-8-fluoro-1,1-dioxo-2,3-dihydro-16,5-benzothiazepin-4-one]	119	2120
214	100	1500	CC(C)Oc1ccc(CN2C(=O)[C@@H](N)CS(=O)(=O)c3cc(F)c(-c4noc(N5CCOC6(CC6)C5)n4)cc32)cn1 [Example 214, (3R)-3-amino-8-fluoro-5-[(6-isopropoxy-3-pyridyl)methyl]-7-[5-(4-oxa-7-azaspiro[2.5]octan-7-yl)-1,2,4-oxadiazol-3-yl]-1,1-dioxo-2,3-dihydro-1λ^6,5-benzothiazepin-4-one]	275	2140
662	886	5360	CC(C)Oc1ccc(CN2C(=O)[C@@H](N)CS(=O)(=O)c3cc(F)c(-c4noc(N5CCOC6(CC6)C5)n4)cc32)nc1 [Example 215]	153	2170
528	494	126	COC(F)(c1nc(-c2cc3c(cc2F)S(=O)(=O)C[C@H](N)C(=O)N3Cc2ccc(Cl)cc2)no1)C(F)(F)F (stereo partly drawn) [Example 292, (3R)-3-amino-5-[(4-chlorophenyl)methyl]-8-fluoro-1,1-dioxo-7-[5-(1,2,2,2-tetrafluoro-1-methoxy-ethyl)-1,2,4-oxadiazol-3-yl]-2,3-dihydro-1λ^6,5-benzothiazepin-4-one]	179	31.9
1150	1200	3310	CC(C)(C)NC(=O)c1nc(-c2cc3c(cc2F)S(=O)(=O)C[C@H](N)C(=O)N3Cc2ccc(Cl)cc2)no1 [Example 293, 3-[(3R)-3-amino-5-[(4-chlorophenyl)methyl]-8-fluoro-1,1,4-trioxo-2,3-dihydro-1λ^6,5-benzothiazepin-7-yl]-N-tert-butyl-1,2,4-oxadiazole-5-carboxamide]	92	2070
373	357	169	CC(N)(c1nc(-c2cc3c(cc2F)S(=O)(=O)C[C@H](N)C(=O)N3Cc2ccc(Cl)cc2)no1)C(F)(F)F (stereo partly drawn) [Example 297, (3R)-3-amino-7-[5-(1-amino-2,2,2-trifluoro-1-methyl-ethyl)-1,2,4-oxadiazol-3-yl]-5-[(4-chlorophenyl)methyl]-8-fluoro-1,1-dioxo-2,3-dihydro-1λ^6,5-benzothiazepin-4-one]	157	219
1660	130	1120	Cc1cc(C)c(-c2nc(-c3cc4c(cc3F)S(=O)(=O)C[C@H](N)C(=O)N4Cc3ccc(Cl)cc3)no2)cn1 [Example 313, (3R)-3-amino-5-[(4-chlorophenyl)methyl]-7-[5-(4,6-dimethyl-3-pyridyl)-1,2,4-oxadiazol-3-yl]-8-fluoro-1,1-dioxo-2,3-dihydro-1λ^6,5-benzothiazepin-4-one]	191	375
403	114	3000	CC(C)(C)c1nc(-c2cc3c(cc2F)S(=O)(=O)C[C@H](N)C(=O)N3Cc2ccc(F)cc2)no1 [Example 357, (3R)-3-amino-7-(5-tert-butyl-1,2,4-oxadiazol-3-yl)-8-fluoro-5-[(4-fluorophenyl)methyl]-1,1-dioxo-2,3-dihydro-1λ^6,5-benzothiazepin-4-one]	386	1140
